Source: patent US11001569B2, “6-membered heteroaromatic substituted cyanoindoline derivatives as NIK inhibitors” (Janssen Pharmaceutica NV, priority 2016, dated 2021)
Where two headings read alike, the source gives them in different places.

What was measured:
[1] = test system: JJN-3 (NIK translocated) multiple myeloma cells; test: Antiproliferative activity on JJN-3 multiple myeloma cells (CellTiter-Glo); format: cell-based, human; settings: JJN-3 (NIK translocated) cells, 96 hr treatment, averaged values, read-out: JJN-3 Proliferation inhibition (IC50 (nM))
In short: (§1)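 Cells plated at 15000 (JJN3) or 20000 (KMS12BM) per well and treated 96 h at 37° C, 5% CO2, final DMSO 0.3%, 9-point 1:3 dilutions. Viability by CellTiter-Glo luminescence; time-zero blank subtracted, growth expressed as percent of untreated control.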

[2] = biological target: recombinant human NF-kappaB-inducing Kinase (NIK/MAP3K14) (Homo sapiens, UniProt Q99558); test: Inhibition of auto-phosphorylation of recombinant human NIK/MAP3K14 activity (AlphaScreen); format: biochemical; settings: 25 microM ATP, averaged over all measurements on all batches
[3] = test system: P-IKKα levels in L363 (NIK translocated multiple myeloma) cells; test: Effect of compounds on P-IKKα levels in L363 cells (Mesoscale sandwich immuno-assay); format: cell-based, human; settings: 2 hr treatment, averaged values, read-out: Inhibition of pIKKα_L-363 (IC50 (nM))
Method: Effect of Compounds on P-IKKα Levels in L363 (NIK Translocated Multiple Myeloma) Cells
All compounds tested were dissolved in DMSO and further dilutions were made in culture medium. Final DMSO concentration was 1% (v/v) in cell assays. The human L363 cells (ATCC) were cultured in RPMI 1640 medium supplemented with GlutaMax and 10% fetal calf serum (PAA). Cells were routinely maintained at densities of 0.2×10^6 cells per ml-1×10^6 cells per ml at 37° C. in a humidified 5% CO2 atmosphere. Cells were passaged twice a week splitting back to obtain the low density. Cells were seeded in 96 well plates (Nunc 167008) at 2×10^6 per ml media in a volume of 75 μl per well plus 25 μl 1 μg/ml recombinant human B-cell activating factor (BAFF/BLyS/TNFSF13B). Seeded cells were incubated at 37° C. in a humidified 5% CO2 atmosphere for 24 hr. Drugs and/or solvents were added (20 μl) to a final volume of 120 μl. Following 2 hr treatment plates were removed from the incubator and cell lysis was achieved by the addition of 30 μl 5× lysis buffer followed by shaking on a plate shaker at 4° C. for 10 min. At the end of this incubation lysed cells were centrifuged at 800×g for 20 min at 4° C. and the lysate was assessed for P-IKK levels by sandwich immuno-assay carried out in anti-rabbit antibody coated Mesoscale plates. Within an experiment, the results for each treatment were the mean of 2 replicate wells. For initial screening purposes, compounds were tested using an 8 point dilution curve (serial 1:3 dilutions). […] The blank incubation value was subtracted from all control and sample values. To determine the IC50 a sigmoidal curve was fitted to the plot of % inhibition of control P-IKKα levels versus Log10 compound concentration.

[4] = test system: KMS12-BM (NIK WT) multiple myeloma cells; test: Antiproliferative activity on KMS12-BM multiple myeloma cells (CellTiter-Glo); format: cell-based, human; settings: 96 hr treatment, averaged values, read-out: KMS-12 Proliferation inhibition (IC50 (nM))
In short: as §1

recombinant human NF-kappaB-inducing Kinase (NIK/MAP3K14), sequence (Q99558 whole entry): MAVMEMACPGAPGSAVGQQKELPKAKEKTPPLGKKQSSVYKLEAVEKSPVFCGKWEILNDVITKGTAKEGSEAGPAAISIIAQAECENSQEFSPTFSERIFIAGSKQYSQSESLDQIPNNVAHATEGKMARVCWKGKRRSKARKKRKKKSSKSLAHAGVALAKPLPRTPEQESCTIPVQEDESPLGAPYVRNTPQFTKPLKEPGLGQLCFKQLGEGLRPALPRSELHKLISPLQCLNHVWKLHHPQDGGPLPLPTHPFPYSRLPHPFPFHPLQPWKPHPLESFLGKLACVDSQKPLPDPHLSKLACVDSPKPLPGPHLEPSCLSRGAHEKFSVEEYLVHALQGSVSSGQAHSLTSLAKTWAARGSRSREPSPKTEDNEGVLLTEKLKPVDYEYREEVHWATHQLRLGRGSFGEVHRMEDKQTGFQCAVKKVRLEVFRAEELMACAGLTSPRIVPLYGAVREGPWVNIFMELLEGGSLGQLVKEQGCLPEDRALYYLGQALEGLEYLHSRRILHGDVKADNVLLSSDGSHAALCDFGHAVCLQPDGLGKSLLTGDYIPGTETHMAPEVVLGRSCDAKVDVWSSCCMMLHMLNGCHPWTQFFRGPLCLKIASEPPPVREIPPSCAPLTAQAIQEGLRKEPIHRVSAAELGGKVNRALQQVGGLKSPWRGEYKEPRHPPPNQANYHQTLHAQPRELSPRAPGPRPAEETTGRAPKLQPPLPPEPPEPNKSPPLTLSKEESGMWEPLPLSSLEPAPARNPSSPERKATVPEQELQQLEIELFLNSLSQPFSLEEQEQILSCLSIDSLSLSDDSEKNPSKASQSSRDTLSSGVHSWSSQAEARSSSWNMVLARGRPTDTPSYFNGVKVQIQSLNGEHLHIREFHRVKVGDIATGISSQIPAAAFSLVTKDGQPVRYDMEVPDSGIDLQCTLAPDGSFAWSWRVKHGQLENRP

Compound: Cc1cc(Nc2nccc(-c3cc(C#N)c4c(c3)[C@@](C)(CO)CN4)n2)c(=O)n(CC2COCCN2C)c1 (some centres unmarked) [Compound 26i]
- IC50 ([1]; Homo sapiens, JJN-3, 96 h): 28 nM
- IC50 [2]: 2.1 nM
- IC50 ([3]; Homo sapiens, L-363, 2 h): 2.3 nM
- IC50 ([4]; Homo sapiens, KMS-12-BM, 96 h): > 10000 nM

Compound: Cc1cc(Nc2nccc(-c3cc(C#N)c4c(c3)[C@@](C)(CO)CN4)n2)c(=O)n(CCN2CCOCC2)c1 [Compound 7i]
- IC50 ([1]; Homo sapiens, JJN-3, 96 h): 115 nM
- IC50 [2]: 1.2 nM
- IC50 ([3]; Homo sapiens, L-363, 2 h): 3.7 nM
- IC50 ([4]; Homo sapiens, KMS-12-BM, 96 h): 9550 nM

Compound: CNC(=O)c1cc(Nc2nccc(-c3cc(C#N)c4c(c3)[C@@](C)(CO)CN4)n2)c(C)cn1 [Compound 165]
- IC50 ([1]; Homo sapiens, JJN-3, 96 h): 117 nM
- IC50 [2]: 1.3 nM
- IC50 ([3]; Homo sapiens, L-363, 2 h): 6.2 nM
- IC50 ([4]; Homo sapiens, KMS-12-BM, 96 h): > 10000 nM

Compound: CC1(CO)CNc2c(C#N)cc(-c3ccnc(Nc4cc(Cl)cnc4C(=O)N4CCCC4)n3)cc21 (centres unmarked) [Compound 179]
- IC50 [2]: 93.3 nM
- IC50 ([3]; Homo sapiens, L-363, 2 h): 1440 nM

Compound: Cc1cnc(OC2CCN(C)CC2F)c(Nc2nccc(-c3cc(C#N)c4c(c3)[C@@](C)(CO)CN4)n2)c1 (mixture of isomers) [Compound 171]
- IC50 [1]: 12 nM
- IC50 [2]: 7.4 nM
- IC50 [3]: 6.9 nM
- IC50 [4]: > 10000 nM

Compound: Cc1cc(Nc2nccc(-c3cc(C#N)c4c(c3)[C@@](C)(CO)CN4)n2)c(=O)n(CCC2CC2)c1 [Compound 5i]
- IC50 ([1]; Homo sapiens, JJN-3, 96 h): 282 nM
- IC50 [2]: 4.5 nM
- IC50 ([3]; Homo sapiens, L-363, 2 h): 15.8 nM
- IC50 ([4]; Homo sapiens, KMS-12-BM, 96 h): 5010 nM

Compound: CC(C)Oc1ncc(C#N)cc1Nc1nccc(-c2cc(C#N)c3c(c2)[C@@](C)(CO)CN3)n1 [Compound 75]
- IC50 ([1]; Homo sapiens, JJN-3, 96 h): > 10000 nM
- IC50 [2]: 9.8 nM
- IC50 ([3]; Homo sapiens, L-363, 2 h): 18.2 nM
- IC50 ([4]; Homo sapiens, KMS-12-BM, 96 h): > 10000 nM

Compound: Cc1cc(Nc2ncc(F)c(-c3cc(C#N)c4c(c3)[C@@](C)(CO)CN4)n2)c(C)cn1 [Compound 158]
- IC50 ([1]; Homo sapiens, JJN-3, 96 h): 49 nM
- IC50 [2]: 1.6 nM
- IC50 ([3]; Homo sapiens, L-363, 2 h): 2.3 nM
- IC50 ([4]; Homo sapiens, KMS-12-BM, 96 h): > 10000 nM

Compound: COCCOc1ncc(C2CC2)cc1Nc1nccc(-c2cc(C#N)c3c(c2)[C@@](C)(CO)CN3)n1 [Compound 67]
- IC50 ([1]; Homo sapiens, JJN-3, 96 h): 204 nM
- IC50 [2]: 12.3 nM
- IC50 ([3]; Homo sapiens, L-363, 2 h): 186 nM
- IC50 ([4]; Homo sapiens, KMS-12-BM, 96 h): > 10000 nM

Compound: CC(C)(CO)Oc1ncc(C#N)cc1Nc1nccc(-c2cc(C#N)c3c(c2)[C@@](C)(CO)CN3)n1 [Compound 78]
- IC50 ([1]; Homo sapiens, JJN-3, 96 h): 589 nM
- IC50 [2]: 4.7 nM
- IC50 ([3]; Homo sapiens, L-363, 2 h): 28.2 nM
- IC50 ([4]; Homo sapiens, KMS-12-BM, 96 h): > 10000 nM

Compound: Cc1cnc(CCC(=O)N(C)C)c(Nc2nccc(-c3cc(C#N)c4c(c3)[C@@](C)(CO)CN4)n2)c1 [Compound 80]
- IC50 ([1]; Homo sapiens, JJN-3, 96 h): 525 nM
- IC50 [2]: 3.7 nM
- IC50 ([3]; Homo sapiens, L-363, 2 h): 38.9 nM
- IC50 ([4]; Homo sapiens, KMS-12-BM, 96 h): > 10000 nM

Compound: CC(C)Oc1nc(P(C)(C)=O)ccc1Nc1nccc(-c2cc(C#N)c3c(c2)[C@@](C)(CO)CN3)n1 [Compound 57]
- IC50 ([1]; Homo sapiens, JJN-3, 96 h): 316 nM
- IC50 [2]: 4.3 nM
- IC50 ([3]; Homo sapiens, L-363, 2 h): 13.8 nM
- IC50 ([4]; Homo sapiens, KMS-12-BM, 96 h): ~8130 nM

Compound: COc1nc(C2CCOCC2)ncc1Nc1nccc(-c2cc(C#N)c3c(c2)[C@@](C)(CO)CN3)n1 [Compound 140]
- IC50 ([1]; Homo sapiens, JJN-3, 96 h): 427 nM
- IC50 [2]: 4.8 nM
- IC50 ([3]; Homo sapiens, L-363, 2 h): 12 nM
- IC50 ([4]; Homo sapiens, KMS-12-BM, 96 h): > 10000 nM

Compound: Cc1cc(Nc2nccc(-c3cc(C#N)c4c(c3)C(C)(C)CN4)n2)c(=O)n(CCN2CC(F)C2)c1 [Compound 27i]
- IC50 ([1]; Homo sapiens, JJN-3, 96 h): 148 nM
- IC50 [2]: 5.8 nM
- IC50 ([3]; Homo sapiens, L-363, 2 h): 13.8 nM
- IC50 ([4]; Homo sapiens, KMS-12-BM, 96 h): > 10000 nM

Compound: Cc1cc(Nc2nccc(-c3cc(C#N)c4c(c3)[C@@](C)(CO)CN4)n2)c(CCC2CC2)nc1P(C)(C)=O [Compound 96]
- IC50 ([1]; Homo sapiens, JJN-3, 96 h): 65 nM
- IC50 [2]: 2.2 nM
- IC50 ([3]; Homo sapiens, L-363, 2 h): 1.1 nM
- IC50 ([4]; Homo sapiens, KMS-12-BM, 96 h): > 10000 nM

Compound: COCCOc1nc(P(C)(C)=O)ccc1Nc1nccc(-c2cc(C#N)c3c(c2)[C@@](C)(CO)CN3)n1 [Compound 60]
- IC50 ([1]; Homo sapiens, JJN-3, 96 h): 708 nM
- IC50 [2]: 7.2 nM
- IC50 ([3]; Homo sapiens, L-363, 2 h): 70.8 nM
- IC50 ([4]; Homo sapiens, KMS-12-BM, 96 h): > 10000 nM

Compound: Cc1cc(Nc2nccc(-c3cc(C#N)c4c(c3)[C@@](C)(CO)CN4)n2)c(C)nc1OC1CCN(C)CC1 [Compound 172]
- IC50 ([1]; Homo sapiens, JJN-3, 96 h): 26 nM
- IC50 [2]: 4.1 nM
- IC50 ([3]; Homo sapiens, L-363, 2 h): 3.9 nM
- IC50 ([4]; Homo sapiens, KMS-12-BM, 96 h): ~2190 nM

Compound: Cc1cnc(/C=C/C(=O)N(C)C)c(Nc2nccc(-c3cc(C#N)c4c(c3)[C@@](C)(CO)CN4)n2)c1 [Compound 84]
- IC50 ([1]; Homo sapiens, JJN-3, 96 h): 4680 nM
- IC50 [2]: 5.6 nM
- IC50 ([3]; Homo sapiens, L-363, 2 h): 11.8 nM
- IC50 ([4]; Homo sapiens, KMS-12-BM, 96 h): > 10000 nM

Compound: COc1ncccc1Nc1nccc(-c2cc(C#N)c3c(c2)C(C)(CNC2CC2)CN3)n1 (centres unmarked) [Compound 110]
- IC50 ([1]; Homo sapiens, JJN-3, 96 h): 1860 nM
- IC50 [2]: 33.9 nM
- melting point: 116 °C
- IC50 ([4]; Homo sapiens, KMS-12-BM, 96 h): > 10000 nM
